Laboratory results as given in ChEMBL document CHEMBL1158488, “Investigation of the relative cellular permeability of DNA-binding pyrrole-imidazole polyamides” (J Med Chem, 2009).

Key:
HeLa = test: Cell permeability in human HeLa cells assessed as glucocorticoid receptor-dependent induction of luciferase activity after 40 hrs by GAL4-responsive luciferase reporter gene assay
Glucocorticoid receptor [1] = target: T1, Glucocorticoid receptor (Homo sapiens, UniProt P04150)
T1 sequence (P04150 whole entry): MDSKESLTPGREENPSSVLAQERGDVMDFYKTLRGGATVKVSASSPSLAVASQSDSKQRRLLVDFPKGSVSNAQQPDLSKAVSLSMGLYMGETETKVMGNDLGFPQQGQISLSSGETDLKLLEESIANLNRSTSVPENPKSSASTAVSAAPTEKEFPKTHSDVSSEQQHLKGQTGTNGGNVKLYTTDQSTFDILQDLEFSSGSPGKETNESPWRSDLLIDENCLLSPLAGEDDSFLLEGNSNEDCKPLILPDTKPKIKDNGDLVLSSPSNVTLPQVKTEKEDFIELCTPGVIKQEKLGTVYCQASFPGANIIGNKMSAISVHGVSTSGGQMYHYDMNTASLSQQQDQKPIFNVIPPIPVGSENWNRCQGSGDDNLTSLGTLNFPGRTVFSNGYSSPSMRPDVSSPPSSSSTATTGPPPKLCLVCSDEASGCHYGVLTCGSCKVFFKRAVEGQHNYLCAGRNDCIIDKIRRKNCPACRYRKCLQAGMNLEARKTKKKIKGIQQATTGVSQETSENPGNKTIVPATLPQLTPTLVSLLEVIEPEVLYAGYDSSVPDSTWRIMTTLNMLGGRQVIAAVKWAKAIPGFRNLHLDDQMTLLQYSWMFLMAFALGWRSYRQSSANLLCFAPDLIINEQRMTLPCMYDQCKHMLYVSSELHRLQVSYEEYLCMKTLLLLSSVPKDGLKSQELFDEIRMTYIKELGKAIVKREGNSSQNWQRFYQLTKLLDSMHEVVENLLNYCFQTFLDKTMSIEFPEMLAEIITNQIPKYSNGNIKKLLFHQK
Description: Displacement of fluormone from human recombinant glucocorticoid receptor ligand binding domain by fluorescence polarization assay

glucocorticoid receptor [2] = test: Cell permeability in human MCF7 cells assessed as glucocorticoid receptor-dependent induction of luciferase activity at 1 uM after 40 hrs by GAL4-responsive luciferase reporter gene assay relative to control; details: MCF7 cells with GAL4-responsive luciferase reporter
glucocorticoid receptor [3] = test: Cell permeability in human HeLa cells assessed as glucocorticoid receptor-dependent induction of luciferase activity at 6 uM after 40 hrs by GAL4-responsive luciferase reporter gene assay relative to control; details: HeLa cells with GAL4-responsive luciferase reporter
MCF7 = test: Cell permeability in human MCF7 cells assessed as glucocorticoid receptor-dependent induction of luciferase activity after 40 hrs by GAL4-responsive luciferase reporter gene assay; details: MCF7, 40 h
glucocorticoid receptor [4] = test: Cell permeability in human HeLa cells assessed as glucocorticoid receptor-dependent induction of luciferase activity at 0.6 uM after 40 hrs by GAL4-responsive luciferase reporter gene assay relative to control; details: HeLa cells with GAL4-responsive luciferase reporter

| SMILES | IC50 (Glucocorticoid receptor [1]) | further results |
| --- | --- | --- |
| C[C@H]1C[C@@H]2[C@H]3CCC4=CC(=O)C=C[C@@]4(C)[C@]3(F)[C@H](O)C[C@@]2(C)[C@]1(O)C(=O)NCCNC(=O)c1cc(NC(=O)c2nccn2C)cn1C | 460 nM | EC50 (HeLa): 4200 nM |
| CC(=O)NCCC(=O)NCCCN(C)CCCNC(=S)NCCSCC(=O)[C@@]1(O)[C@H](C)C[C@H]2[C@@H]3CCC4=CC(=O)C=C[C@]4(C)[C@@]3(F)[C@@H](O)C[C@@]21C | 9.3 nM | fold induction at 40 h, 1 µM (glucocorticoid receptor [2]): 1200; fold induction at 40 h, 6 µM (glucocorticoid receptor [3]): 600; EC50 (MCF7): 250 nM |
| C[C@@H]1C[C@H]2[C@@H]3CCC4=CC(=O)C=C[C@]4(C)[C@@]3(F)[C@@H](O)C[C@]2(C)[C@@]1(O)C(=O)CSCCNC(=S)NCCCN(C)CCCNC(=O)CCNC(=O)c1cc(NC(=O)c2cc(NC(=O)c3cc(NC(=O)c4cc(NC(=O)CCCNC(=O)c5cc(NC(=O)c6cc(NC(=O)c7cc(NC(=O)c8nccn8C)cn7C)cn6C)cn5C)cn4C)cn3C)cn2C)cn1C |  | Kd (Nucleic Acid): 5 nM |
| C[C@H]1C[C@@H]2[C@H]3CCC4=CC(=O)C=C[C@@]4(C)[C@]3(F)[C@H](O)C[C@@]2(C)[C@]1(O)C(=O)CSCCNC(=S)NCCNC(=O)c1cc(NC(=O)c2cc(NC(=O)c3cc(NC(=O)c4cc(NC(=O)CCCNC(=O)c5cc(NC(=O)c6nccn6C)cn5C)cn4C)cn3C)cn2C)cn1C | 21 nM |  |
| C[C@@H]1C[C@H]2[C@@H]3CCC4=CC(=O)C=C[C@]4(C)[C@@]3(F)[C@@H](O)C[C@]2(C)[C@@]1(O)C(=O)CSCCNC(=S)NCCCN(C)CCCNC(=O)CCNC(=O)c1cc(NC(=O)c2cc(NC(=O)c3cc(NC(=O)c4cc(NC(=O)c5nccn5C)cn4C)cn3C)cn2C)cn1C | 16 nM |  |
| C[C@@H]1C[C@H]2[C@@H]3CCC4=CC(=O)C=C[C@]4(C)[C@@]3(F)[C@@H](O)C[C@]2(C)[C@@]1(O)C(=O)CSCCNC(=S)NCCCN(C)CCCNC(=O)CCNC(=O)c1cc(NC(=O)c2cc(NC(=O)c3nccn3C)cn2C)cn1C | 12 nM |  |
| C[C@H]1C[C@@H]2[C@H]3CCC4=CC(=O)C=C[C@@]4(C)[C@]3(F)[C@H](O)C[C@@]2(C)[C@]1(O)C(=O)CSCCNC(=S)NCCNC(=O)c1cc(NC(=O)c2cc(NC(=O)c3cc(NC(=O)c4cc(NC(=O)CCCNC(=O)c5nccn5C)cn4C)cn3C)cn2C)cn1C | 23 nM |  |
| C[C@H]1C[C@@H]2[C@H]3CCC4=CC(=O)C=C[C@@]4(C)[C@]3(F)[C@H](O)C[C@@]2(C)[C@]1(O)C(=O)CSCCNC(=S)NCCNC(=O)c1cc(NC(=O)c2cc(NC(=O)c3cc(NC(=O)c4nccn4C)cn3C)cn2C)cn1C | 26 nM |  |
| C[C@@H]1C[C@H]2[C@@H]3CCC4=CC(=O)C=C[C@]4(C)[C@@]3(F)[C@@H](O)C[C@]2(C)[C@@]1(O)C(=O)CSCCNC(=S)NCCCN(C)CCCNC(=O)CCNC(=O)c1cc(NC(=O)c2cc(NC(=O)c3cc(NC(=O)c4cc(NC(=O)CCCNC(=O)c5nccn5C)cn4C)cn3C)cn2C)cn1C | 16 nM |  |
| C[C@@H]1C[C@H]2[C@@H]3CCC4=CC(=O)C=C[C@]4(C)[C@@]3(F)[C@@H](O)C[C@]2(C)[C@@]1(O)C(=O)CSCCNC(=S)NCCCN(C)CCCNC(=O)CCNC(=O)c1cc(NC(=O)c2cc(NC(=O)c3cc(NC(=O)c4nccn4C)cn3C)cn2C)cn1C | 20 nM |  |
| C[C@H]1C[C@@H]2[C@H]3CCC4=CC(=O)C=C[C@@]4(C)[C@]3(F)[C@H](O)C[C@@]2(C)[C@]1(O)C(=O)CSCCNC(=S)NCCNC(=O)c1cc(NC(=O)c2cc(NC(=O)c3cc(NC(=O)c4cc(NC(=O)CCCNC(=O)c5cc(NC(=O)c6cc(NC(=O)c7cc(NC(=O)c8nccn8C)cn7C)cn6C)cn5C)cn4C)cn3C)cn2C)cn1C | 27 nM | fold induction at 40 h, 6 µM (glucocorticoid receptor [3]): 1500 |
| C[C@@H]1C[C@H]2[C@@H]3CCC4=CC(=O)C=C[C@]4(C)[C@@]3(F)[C@@H](O)C[C@]2(C)[C@@]1(O)C(=O)CSCCNC(=S)NCCCN(C)CCCNC(=O)CCNC(=O)c1cc(NC(=O)c2nccn2C)cn1C | 8.5 nM |  |
| CC(=O)NCCNC(=S)NCCSCC(=O)[C@@]1(O)[C@H](C)C[C@H]2[C@@H]3CCC4=CC(=O)C=C[C@]4(C)[C@@]3(F)[C@@H](O)C[C@@]21C | 9.8 nM | EC50 (HeLa): 290 nM; fold induction at 40 h, 0.6 µM (glucocorticoid receptor [4]): 3600 |
| C[C@@H]1C[C@H]2[C@@H]3CCC4=CC(=O)C=C[C@]4(C)[C@@]3(F)[C@@H](O)C[C@]2(C)[C@@]1(O)C(=O)CSCCNC(=S)NCCCN(C)CCCNC(=O)CCNC(=O)c1cc(NC(=O)c2cc(NC(=O)c3cc(NC(=O)c4cc(NC(=O)CCCNC(=O)c5cc(NC(=O)c6cc(NC(=O)c7nccn7C)cn6C)cn5C)cn4C)cn3C)cn2C)cn1C | 20 nM |  |
| C[C@H]1C[C@@H]2[C@H]3CCC4=CC(=O)C=C[C@@]4(C)[C@]3(F)[C@H](O)C[C@@]2(C)[C@]1(O)C(=O)NCCNC(=O)c1cc(NC(=O)c2cc(NC(=O)c3cc(NC(=O)c4nccn4C)cn3C)cn2C)cn1C | 550 nM |  |
| C[C@@H]1C[C@H]2[C@@H]3CCC4=CC(=O)C=C[C@]4(C)[C@@]3(F)[C@@H](O)C[C@]2(C)[C@@]1(O)C(N)=O [OXDEX] |  | EC50 (HeLa): 35000 nM |
| C[C@H]1C[C@@H]2[C@H]3CCC4=CC(=O)C=C[C@@]4(C)[C@]3(F)[C@H](O)C[C@@]2(C)[C@]1(O)C(=O)CSCCNC(=S)NCCNC(=O)c1cc(NC(=O)c2cc(NC(=O)c3nccn3C)cn2C)cn1C | 14 nM | EC50 (HeLa): 1200 nM; fold induction at 40 h, 6 µM (glucocorticoid receptor [3]): 3400 |
| C[C@H]1C[C@@H]2[C@H]3CCC4=CC(=O)C=C[C@@]4(C)[C@]3(F)[C@H](O)C[C@@]2(C)[C@]1(O)C(=O)CSCCNC(=S)NCCNC(=O)c1cc(NC(=O)c2cc(NC(=O)c3cc(NC(=O)c4cc(NC(=O)c5nccn5C)cn4C)cn3C)cn2C)cn1C | 34 nM |  |
| C[C@H]1C[C@@H]2[C@H]3CCC4=CC(=O)C=C[C@@]4(C)[C@]3(F)[C@H](O)C[C@@]2(C)[C@]1(O)C(=O)CSCCNC(=S)NCCNC(=O)c1cc(NC(=O)c2cncn2C)cn1C | 5.7 nM | EC50 (HeLa): 750 nM |
| C[C@H]1C[C@@H]2[C@H]3CCC4=CC(=O)C=C[C@@]4(C)[C@]3(F)[C@H](O)C[C@@]2(C)[C@]1(O)C(=O)CSCCNC(=S)NCCNC(=O)c1cc(NC(=O)c2cc(NC(=O)c3cc(NC(=O)c4cc(NC(=O)CCCNC(=O)c5cc(NC(=O)c6cc(NC(=O)c7nccn7C)cn6C)cn5C)cn4C)cn3C)cn2C)cn1C | 21 nM |  |
| C[C@@H]1C[C@H]2[C@@H]3CCC4=CC(=O)C=C[C@]4(C)[C@@]3(F)[C@@H](O)C[C@]2(C)[C@@]1(O)C(=O)CSCCNC(=S)NCCCN(C)CCCNC(=O)CCNC(=O)c1cc(NC(=O)c2cc(NC(=O)c3cc(NC(=O)c4cc(NC(=O)CCCNC(=O)c5cc(NC(=O)c6nccn6C)cn5C)cn4C)cn3C)cn2C)cn1C | 22 nM |  |
| C[C@H]1C[C@@H]2[C@H]3CCC4=CC(=O)C=C[C@@]4(C)[C@]3(F)[C@H](O)C[C@@]2(C)[C@]1(O)C(=O)NCCNC(=O)c1cc(NC(=O)c2cc(NC(=O)c3cc(NC(=O)c4cc(NC(=O)CCCNC(=O)c5cc(NC(=O)c6cc(NC(=O)c7cc(NC(=O)c8nccn8C)cn7C)cn6C)cn5C)cn4C)cn3C)cn2C)cn1C | 840 nM |  |
